Test [1] addresses T1, CRBN/DDB1 (Homo sapiens, UniProt Q96SW2).
T1 construct: purchased Wuxi RP210521GA
Format: binding. The following applies: HTRF, Cy5-labeled Thalidomide probe. The protocol:
The binding potency was determined using HTRF assay technology (Perkin Elmer). Compounds were serially diluted in DMSO and 0.2 μL volume was transferred to white 384-well plate.

The target in test [2] is T2, ER (Homo sapiens, UniProt P03372).
T2 construct: endogenous in cells; probably T47D or MCF-7
T2 sequence (P03372 1-595): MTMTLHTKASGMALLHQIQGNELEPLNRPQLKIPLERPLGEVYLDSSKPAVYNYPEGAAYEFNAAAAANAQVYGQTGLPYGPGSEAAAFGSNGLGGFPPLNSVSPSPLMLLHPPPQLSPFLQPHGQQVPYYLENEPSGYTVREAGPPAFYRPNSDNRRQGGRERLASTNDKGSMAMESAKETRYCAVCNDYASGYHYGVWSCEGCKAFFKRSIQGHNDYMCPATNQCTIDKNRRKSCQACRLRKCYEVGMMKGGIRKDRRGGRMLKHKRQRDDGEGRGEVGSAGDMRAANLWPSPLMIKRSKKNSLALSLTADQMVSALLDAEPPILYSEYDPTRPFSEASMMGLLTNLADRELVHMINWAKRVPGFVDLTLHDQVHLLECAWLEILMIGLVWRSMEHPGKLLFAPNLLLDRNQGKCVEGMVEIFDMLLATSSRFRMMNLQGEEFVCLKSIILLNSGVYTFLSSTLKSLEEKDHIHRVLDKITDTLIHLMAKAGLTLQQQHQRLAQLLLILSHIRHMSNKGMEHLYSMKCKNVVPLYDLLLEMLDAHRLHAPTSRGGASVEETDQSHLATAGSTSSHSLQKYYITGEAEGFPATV
The experiment in a line: In-cell Western (ICW) ER degradation assay in T47D cells. The following applies: T47D cells, 16 hrs; for Dmax: T47D, read-out: ER T47D ICW Dmax (%). Format: cell-based. The protocol: (§1) ERa degradative activity of compounds can be assessed in MCF-7 and T47D Cells. MCF-7 and T47D cell are seeded and are subsequently treated with the compounds at certain concentrations (e.g., 0.02 to 300 nM). DMSO can be used as vehicle control. Cells are fixed and are blocked with Intercept (PBS) Blocking Buffer (e.g., Li—COR, Odyssey Blocking Buffer), and are stained with ER (e.g., 1:500, Cell signaling) primary antibody for overnight at cold room. Secondary Antibody (e.g., IRDye 800CW Goat anti-Rabbit IgG) and CellTag 700 Stain are added in Intercept (PBS) Blocking Buffer. Finally, cell plate is placed in incubator to dry. Image and signal are captured on Odyssey® DLx Imaging System.
(§2) In-cell Western (ICW) assays in MCF-7 and T47D cell lines.
(§3) Procedures for ICW assays
(§4) In vitro Assay: MCF-7 and T47D ICW assay
(§5) Day 3: After 16 hrs of compounds treatment, cells were fixed by 4% PFA and permeabilized with elution buffer (0.1% Triton X-100 in 1% PBS Solution). Subsequently, cells were blocked with Intercept (PBS) Blocking Buffer (Li—COR, Odyssey Blocking Buffer), and were stained with ER (1:500, Cell signaling) primary antibody for overnight at cold room.
(§6) Day 4: Remove the buffer, add IRDye 800CW Goat anti-Rabbit IgG Secondary Antibody (1:2000) and CellTag 700 Stain (1:500) in Intercept (PBS) Blocking Buffer. Finally, cell plate is placed in incubator to dry. Image and signal were captured on Odyssey® DLx Imaging System.

The target of test [3] is T2, ER. Description: In-cell Western (ICW) ER degradation assay in MCF-7 cells. Format: cell-based. The following applies: 16 hrs; for Dmax: MCF7, MCF-7 cells, read-out: ER MCF7 ICW Dmax (%); for DC50: read-out: ER MCF7 ICW DC50. How it is done: as §1, §2, §3, §4, §5, §6

Results on nine compounds are retold here after patent US20260256925A1, “INDAZOLE DERIVATIVES AS ESTROGEN RECEPTOR DEGRADERS” (REGENTS OF THE UNIVERSITY OF MICHIGAN, priority 2022, published 2026).

T1 sequence (Q96SW2 whole entry): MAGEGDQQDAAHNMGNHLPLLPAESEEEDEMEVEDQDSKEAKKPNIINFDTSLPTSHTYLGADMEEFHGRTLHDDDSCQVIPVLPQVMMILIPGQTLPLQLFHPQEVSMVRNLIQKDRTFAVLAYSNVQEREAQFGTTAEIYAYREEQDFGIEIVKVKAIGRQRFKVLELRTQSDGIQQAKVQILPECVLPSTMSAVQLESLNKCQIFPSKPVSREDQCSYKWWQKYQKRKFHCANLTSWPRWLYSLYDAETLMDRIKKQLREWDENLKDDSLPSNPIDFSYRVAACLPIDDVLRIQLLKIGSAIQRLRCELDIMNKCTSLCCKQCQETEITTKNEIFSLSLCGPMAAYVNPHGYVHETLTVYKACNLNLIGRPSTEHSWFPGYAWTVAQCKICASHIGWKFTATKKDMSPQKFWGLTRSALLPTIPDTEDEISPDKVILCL
T1 sequence (Q16531 whole entry partner): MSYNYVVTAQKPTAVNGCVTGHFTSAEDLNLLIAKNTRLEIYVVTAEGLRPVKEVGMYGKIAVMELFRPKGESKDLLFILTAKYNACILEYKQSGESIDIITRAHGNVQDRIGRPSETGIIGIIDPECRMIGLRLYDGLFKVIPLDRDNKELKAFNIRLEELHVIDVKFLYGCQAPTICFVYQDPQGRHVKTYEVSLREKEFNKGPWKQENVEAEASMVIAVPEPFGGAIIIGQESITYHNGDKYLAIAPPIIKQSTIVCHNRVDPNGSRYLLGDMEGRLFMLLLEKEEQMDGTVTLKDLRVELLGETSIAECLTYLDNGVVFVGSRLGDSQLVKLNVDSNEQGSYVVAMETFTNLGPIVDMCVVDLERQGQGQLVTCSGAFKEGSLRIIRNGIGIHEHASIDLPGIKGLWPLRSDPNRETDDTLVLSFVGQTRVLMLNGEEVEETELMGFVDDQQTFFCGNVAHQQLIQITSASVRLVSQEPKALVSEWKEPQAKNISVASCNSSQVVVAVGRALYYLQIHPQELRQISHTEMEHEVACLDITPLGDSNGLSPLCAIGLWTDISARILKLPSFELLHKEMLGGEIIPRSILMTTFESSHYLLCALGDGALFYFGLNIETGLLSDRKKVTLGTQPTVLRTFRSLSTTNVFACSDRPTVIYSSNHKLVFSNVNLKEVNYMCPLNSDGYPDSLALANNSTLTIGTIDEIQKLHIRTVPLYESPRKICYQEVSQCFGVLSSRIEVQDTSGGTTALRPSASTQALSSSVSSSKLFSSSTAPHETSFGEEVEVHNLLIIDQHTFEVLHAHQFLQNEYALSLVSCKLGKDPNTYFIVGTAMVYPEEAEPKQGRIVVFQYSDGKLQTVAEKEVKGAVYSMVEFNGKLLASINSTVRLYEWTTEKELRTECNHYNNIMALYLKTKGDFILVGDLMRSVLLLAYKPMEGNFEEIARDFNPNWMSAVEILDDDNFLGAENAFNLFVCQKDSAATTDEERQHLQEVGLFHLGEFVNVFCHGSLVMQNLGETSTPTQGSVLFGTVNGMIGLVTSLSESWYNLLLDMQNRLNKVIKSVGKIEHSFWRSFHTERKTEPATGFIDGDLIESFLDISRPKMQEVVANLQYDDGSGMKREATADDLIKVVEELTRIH

`C[C@H]1Cc2c(ccc3[nH]ncc23)[C@H](c2ccc(N3CCC4(CC3)CC(CN3CCN(c5ccc(C(=O)NC6CCC(=O)NC6=O)nc5)CC3)C4)cn2)N1CC(F)(F)F` (stereo in doubt) [Compound A9, N-(2,6-dioxopiperidin-3-yl)-5-(4-((7-(6-((6R,8S)-8-methyl-7-(2,2,2-trifluoroethyl)-6,7,8,9-tetrahydro-3H-pyrazolo[4,3-f]isoquinolin-6-yl)pyridin-3-yl)-7-azaspiro[3.5]nonan-2-yl)methyl)piperazin-1-yl)picolinamide] had an IC50 in test [1] of 0.05 to 0.5 µM. The DC50 in test [2] and in test [3] (MCF-7 cells) was below 0.001 µM throughout. Further, the Dmax in test [2] and in test [3] was 50 to 75% throughout.

`C[C@H]1Cc2c(ccc3[nH]ncc23)[C@H](c2ccc(N3CCC4(CC3)CC(CN3CCC(c5ccc(NC6CCC(=O)NC6=O)cc5)CC3)C4)cn2)N1CC(F)(F)F` (stereo in doubt) [Compound A10, 3-((4-(1-((7-(6-((6R,8S)-8-methyl-7-(2,2,2-trifluoroethyl)-6,7,8,9-tetrahydro-3H-pyrazolo[4,3-f]isoquinolin-6-yl)pyridin-3-yl)-7-azaspiro[3.5]nonan-2-yl)methyl)piperidin-4-yl)phenyl)amino)piperidine-2,6-dione] showed a concentration for half-maximal inhibition (IC50) in test [1] of 0.05 to 0.5 µM. The half-maximal degradation concentration (DC50) in test [2] and in test [3] (MCF-7 cells) was below 0.001 µM each time. For the same compound, the Dmax in test [2] and in test [3] was 50 to 75% each time.

In turn, `C[C@H]1Cc2c(ccc3[nH]ncc23)[C@H](c2ccc(N3CCC4(CC3)CC(CN3CCN5c6cc7c(cc6OC[C@@H]5C3)C(=O)N([C@@H]3CCC(=O)NC3=O)C7)C4)cn2)N1CC1(F)CC1` (stereo in doubt) [Compound A13, (R)-3-((S)-3-((7-(6-((6R,8S)-7-((1-fluorocyclopropyl)methyl)-8-methyl-6,7,8,9-tetrahydro-3H-pyrazolo[4,3-f]isoquinolin-6-yl)pyridin-3-yl)-7-azaspiro[3.5]nonan-2-yl)methyl)-8-oxo-1,2,3,4,4a,5,8,10-octahydro-9H-pyrazino[1′,2′:4,5][1,4]oxazino[2,3-f]isoindol-9-yl)piperidine-2,6-dione] showed an IC50 in test [1] below 0.05 µM. For the same compound, the 50% degradation concentration (DC50) in test [2] and in test [3] (MCF-7 cells) was below 0.001 µM each time. Also, the Dmax is 50 to 75% in test [2] and 25 to 50% in test [3].

With `C[C@H]1Cc2c(ccc3[nH]ncc23)[C@@H](c2ccc(N3CC4(CCC(CN5CCN6c7ccc8c(c7OC[C@@H]6C5)CN([C@@H]5CCC(=O)NC5=O)C8=O)CC4)C3)nc2)N1CC(F)(F)F` (stereo in doubt) [Compound A18, (R)-3-((S)-7-((2-(5-((6S,8S)-8-methyl-7-(2,2,2-trifluoroethyl)-6,7,8,9-tetrahydro-3H-pyrazolo[4,3-f]isoquinolin-6-yl)pyridin-2-yl)-2-azaspiro[3.5]nonan-7-yl)methyl)-1-oxo-1,3,5,5a,6,7,8,9-octahydro-2H-pyrazino[1′,2′:4,5][1,4]oxazino[2,3-e]isoindol-2-yl)piperidine-2,6-dione], the concentration for half-maximal inhibition (IC50) in test [1] lay in the range of 0.05 to 0.5 µM. Further, the DC50 in test [2] and in test [3] (MCF-7 cells) was 0.001 to 0.01 µM each time. The Dmax in test [2] and in test [3] was 50 to 75% each time.

`C[C@H]1Cc2c(ccc3[nH]ncc23)[C@@H](c2ccc(N3CCC(CN4CCN5c6cc7c(cc6OC[C@H]5C4)C(=O)N([C@@H]4CCC(=O)NC4=O)C7)CC3)nc2)N1CC(F)(F)F` (stereo in doubt) [Compound A20, (R)-3-((R)-3-((1-(5-((6S,8S)-8-methyl-7-(2,2,2-trifluoroethyl)-6,7,8,9-tetrahydro-3H-pyrazolo[4,3-f]isoquinolin-6-yl)pyridin-2-yl)piperidin-4-yl)methyl)-8-oxo-1,2,3,4,4a,5,8,10-octahydro-9H-pyrazino[1′,2′:4,5][1,4]oxazino[2,3-f]isoindol-9-yl)piperidine-2,6-dione] came in with a 50% inhibitory concentration (IC50) in test [1] below 0.05 µM. The 50% degradation concentration (DC50) in test [2] and in test [3] (MCF-7 cells) was 0.01 to 0.1 µM each time. For the same compound, the figures for the Dmax in test [2] and in test [3] were 50 to 75% and 25 to 50%, respectively.

Turning to `C[C@@H]1Cc2c(ccc3[nH]ncc23)[C@@H](c2c(F)cc(N3CCC4(CCN(C(=O)CN5Cc6cc(F)c(C(=O)N[C@H]7CCC(=O)NC7=O)cc6C5)CC4)CC3)cc2F)N1CC(F)F` [Compound A1, 2-(2-(9-(4-((6S,8R)-7-(2,2-difluoroethyl)-8-methyl-6,7,8,9-tetrahydro-3H-pyrazolo[4,3-f]isoquinolin-6-yl)-3,5-difluorophenyl)-3,9-diazaspiro[5.5]undecan-3-yl)-2-oxoethyl)-N-((S)-2,6-dioxopiperidin-3-yl)-6-fluoroisoindoline-5-carboxamide], the 50% inhibitory concentration (IC50) in test [1] was above 5 µM.

The compound `C[C@@H]1Cc2c(ccc3[nH]ncc23)[C@@H](c2c(F)cc(N3CCC(CN4CCN5c6ccc7c(c6OC[C@@H]5C4)CN(C4CCC(=O)NC4=O)C7=O)CC3)cc2F)N1CC(F)F` (stereo partly drawn) [Compound A2, 3-((S)-7-((1-(4-((6S,8R)-7-(2,2-difluoroethyl)-8-methyl-6,7,8,9-tetrahydro-3H-pyrazolo[4,3-f]isoquinolin-6-yl)-3,5-difluorophenyl)piperidin-4-yl)methyl)-1-oxo-1,3,5,5a,6,7,8,9-octahydro-2H-pyrazino[1′,2′:4,5][1,4]oxazino[2,3-e]isoindol-2-yl)piperidine-2,6-dione] came in with an IC50 in test [1] of 0.05 to 0.5 µM. Moreover, the 50% degradation concentration (DC50) in test [2] and in test [3] (MCF-7 cells) was below 0.001 µM in each case. Besides, the Dmax in test [2] and in test [3] was 50 to 75% each time.

Take `C[C@@H]1Cc2c(ccc3[nH]ncc23)[C@@H](c2ccc(N3CCC4(CC3)CC(CN3CCN5c6cc7c(cc6OC[C@H]5C3)C(=O)N([C@@H]3CCC(=O)NC3=O)C7)C4)cn2)N1CC1(F)CC1` [Compound A14, (R)-3-((R)-3-((7-(6-((6S,8R)-7-((1-fluorocyclopropyl)methyl)-8-methyl-6,7,8,9-tetrahydro-3H-pyrazolo[4,3-f]isoquinolin-6-yl)pyridin-3-yl)-7-azaspiro[3.5]nonan-2-yl)methyl)-8-oxo-1,2,3,4,4a,5,8,10-octahydro-9H-pyrazino[1′,2′:4,5][1,4]oxazino[2,3-f]isoindol-9-yl)piperidine-2,6-dione]: the half-inhibitory concentration (IC50) in test [1] was 0.05 to 0.5 µM. In addition, the DC50 in test [2] and in test [3] (MCF-7 cells) was below 0.001 µM in each case. The Dmax is above 75% in test [2] and 50 to 75% in test [3].

With “(S)-3-((R)-7-((1-(5-((6S,8R)-8-methyl-7- (2,2,2-trifluoroethyl)-6,7,8,9-tetrahydro-3H- pyrazolo[4,3-f]isoquinolin-6-yl)pyridin-2- yl)piperidin-4-yl)methyl)-1-oxo- 1,3,5,5a,6,7,8,9-octahydro-2H- pyrazino[1′,2′:4,5][1,4]oxazino[2,3-c]isoindol- 2-yl)piperidine-2,6-dione [Compound A23]”, in test [1], the concentration for half-maximal inhibition (IC50) was 0.5 to 5 µM. In test [2], the DC50 lay in the range of 0.001 to 0.01 µM; the “ER T47D ICW Dmax (%)” value was “B (“B”: >50% and <75%)”. In addition, in test [3] (MCF-7 cells), the “ER MCF7 ICW Dmax (%)” value is “B (“B”: >50% and <75%)”; the DC50 lay in the range of 0.001 to 0.01 µM.

As a reminder, the IC50 is the concentration needed to halve the response being measured. A higher IC50 goes with a need for much substance. The DC50 is the concentration giving 50% degradation. The Dmax is the largest share of the target that was removed.
